Laboratory results from publication PMC4682109, “The experimental power of FR900359 to study Gq-regulated biological processes” (Nature Communications, 2015).
Read-outs that look alike come from different tables or passages of the source. Starred links: 1 amine or outer side, 2 acyl side, 3 side chain; linkers in the order of their positions; H or OH if unused. Positions of bridges follow the written chain, without caps; N, C: chain ends. Non-standard residues stand in square brackets, D forms with d. Residues, ends and D or L forms follow the SMILES beside them. ξ: configuration not given here. *: point of attachment. Leu(3R-OH,Nα-propionyl) = CCC(=O)N[C@H](C(=O)*)[C@H](O)C(C)C; X1 = CC(C)[C@@H](O[*:3])[C@H](N[*:1])C(=O)[*:2]; NMeT = CN[C@H](C(=O)O)[C@@H](C)O; dPhLac = O=C(O)[C@H](O)Cc1ccccc1; NMeA = CN[C@@H](C)C(=O)O; NMeDha = C=C(NC)C(=O)O; ξNMeA = CNC(C)C(=O)O

Tests used:
B16 cells = test: XTT metabolic activity of B16 cells; type: cell-based, mouse; conditions: 72 h of FR treatment
Protocol: (§1) B16 cell viability in the presence of various concentrations of FR was measured using the XTT-based cell proliferation kit II (Fa. Roche) according to the manufacturer's protocols. Viability of HEK293 cell lines was assessed using a fluorimetric detection of resorufin (CellTiter-Blue Cell Viability Assay, Promega). Specifically, Gαq/11 ko-HEK293 and HEK293 cells were seeded at a density of 20,000 and 25,000 cells per well into black 96-well poly-D-lysine-coated plates with clear bottom, respectively. Three hours after seeding cells were treated with 0.3% DMSO or FR dissolved in medium for 24 h. To detect cell viability, CellTiter-Blue reagent was added and cells were incubated for 1 h at 37 °C according to the manufacturer's instructions. Fluorescence (excitation 560 nm, emission 590 nm) was measured using a FlexStation 3 Benchtop Multimode Plate Reader and data were expressed as percentage of cell viability relative to DMSO control.

[1] = target: T1, purified recombinant Gαq (GαqΔ34) (Mus musculus, UniProt P21279); test: [3H]GDP dissociation from purified Gαq; type: biochemical
T1 construct: first 28 residues of rat Gαi1 (GNAI1, P10824 by own knowledge) (N); TEV-cleavage site (N); made in house; host or cells: insect cells (Sf9), pFastBac1 vector
T1 sequence (P21279 35-359): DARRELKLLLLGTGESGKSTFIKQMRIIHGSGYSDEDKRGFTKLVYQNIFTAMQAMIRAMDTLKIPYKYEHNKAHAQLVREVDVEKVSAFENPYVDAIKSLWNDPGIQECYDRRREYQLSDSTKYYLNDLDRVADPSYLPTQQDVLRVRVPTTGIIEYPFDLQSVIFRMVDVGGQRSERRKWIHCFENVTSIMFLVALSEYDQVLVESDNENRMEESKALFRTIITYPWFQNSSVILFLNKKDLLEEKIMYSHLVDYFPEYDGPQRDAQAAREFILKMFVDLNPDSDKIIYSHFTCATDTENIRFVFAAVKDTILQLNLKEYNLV
Protocol: GαqΔ34 (containing the first 28 residues of rat Gαi1 fused to mouse Gαq lacking the first 34 residues, and with a TEV-cleavage site between the Gαi1 and Gαq sequences) was purified after expression from a pFastBac1 vector in insect cells. Purified GαqΔ34 (∼7 mg ml^−1) was stored at −80 °C in 20 mM HEPES pH 8, 0.2 mM dithiothreitol, 2% (v/v) glycerol, 100 mM NaCl, 0.1 mg ml^−1 PMSF augmented with 10 mM NaF, 30 μM AlCl3, and 5 mM MgCl2.
[^3H]GDP exchange by Gαq was measured based on previous protocols. Briefly, purified GαqΔ34 (100 nM) was incubated with 1 μM [^3H]GDP (42,500 c.p.m. pmol^−1) and 50 mM (NH4)2SO4 for 18 h at 20 °C in assay buffer A (50 mM HEPES pH 7.5, 1 mM EDTA, 0.9 mM MgSO4, 1 mM dithiothreitol, and 0.05% Genapol C-100). Excess [^3H]GDP was removed from Gαq using a ZebaTM spin desalting column following the manufacturer's protocol (Thermo Scientific). Approximately 20% of Gαq incorporated the radiolabelled nucleotide. The reaction mixtures were then mixed with the same volume of assay buffer A in the presence of 0.1–2% dimethylsulphoxide (DMSO), 0–200 nM FR and 1.5 M (NH4)2SO4 to reach final concentrations of […] DMSO, 0–100 nM FR and 750 mM (NH4)2SO4 in the reaction. Dissociation of [^3H]GDP was monitored at 20 °C by stopping the reaction by addition of 4 ml of an ice-cold wash buffer (20 mM Tris pH 8.0, 100 mM NaCl and 2 mM MgSO4). The quenched mixtures were filtered through nitrocellulose membranes, the membranes were washed four times with ice-cold wash buffer, and the filters air-dried for at least 10 min. Radioactivity was quantified by scintillation spectrometry.
Supplementary Table 1: logEC values of the inhibitory effect of FR on [3H]GDP dissociation were
independent of the time point used for quantification.
[3H]GDP binding to purified Gαq proteins was quantified in presence of increasing concentrations of FR
after four different time points (30 min, 60 min, 90 min, 120 min). Data were analyzed by fitting [3H]GDP
binding versus FR concentration to the four parameter logistic function and the logarithm of the half
maximal effective concentrations (logEC50 expressed as means ± SEM from the respective curves in Fig.
7h) for FR-induced inhibition of [3H]GDP dissociation are presented.

[2] = system: HEK293 Gαq/11 knockout cells; test: Cell growth and Ki67 staining in HEK293 Gαq/11 knockout cells; type: cell-based; conditions: FR 10 μM
Protocol: For analysis of growth properties of HEK293 cells, 10^5 HEK 293 cells per well were seeded on a 6-well tissue culture plate. After 3 h cells were treated with either 10 μmol FR or 0.1% DMSO. After 72 h cell number was determined by counting in a Neubauer chamber.
Cells grown on coverslips were fixed with 4% paraformaldehyde in PBS and stained with antibodies as follows (in 0.2% Triton X in PBS, supplemented with 5% donkey serum; 2 h at room temperature): Ki67 MIB-1 (1:200, Covance) and vimentin (1:1,000, Chemicon). Primary antibodies were visualized by secondary antibodies conjugated to Cy5 (1:400, Jackson ImmunoResearch) diluted in 1 μg ml^−1 Hoechst 33342 (nuclei staining) at room temperature for 1 h. For documentation an inverted fluorescence microscope (Axiovert 200; Carl Zeiss MicroImaging, Inc.) equipped with a slider module (ApoTome; Carl Zeiss MicroImaging, Inc.), using filters for DAPI, GFP, Cy3 and Cy5, x25, x40 DIC Plan Apochromat oil objectives, an ebx 75 light source and an AxioCam MRm digital camera was used. Pictures were generated with the Axiovision Rel. 4.8 software (Zeiss).

[3] = system: HEK293 Gαq/11 knockout cells; test: Annexin V flow cytometry in HEK293 Gαq/11 knockout cells; type: cell-based; conditions: FR 10 μM, 72 h; representative experiment
Source text: For apoptosis analysis of HEK293 cells, cells were stained for Annexin V by use of the Annexin V-FITC Apoptosis Detection Kit (Calbiochem) according to the manufacturer's instructions.

Gq = target: T2, Gq (Cricetulus griseus, UniProt Q3HR10); test: IP1 accumulation in M1-CHO cells, carbachol; type: cell-based, Chinese hamster; conditions: carbachol 30 µM, means ± SEM of at least three experiments, read-out: pIC50, IP1 (% of 30 µM carbachol) (converted)
T2 construct: endogenous in cells; host or cells: M1-CHO cells
T2 sequence (Q3HR10 1-359): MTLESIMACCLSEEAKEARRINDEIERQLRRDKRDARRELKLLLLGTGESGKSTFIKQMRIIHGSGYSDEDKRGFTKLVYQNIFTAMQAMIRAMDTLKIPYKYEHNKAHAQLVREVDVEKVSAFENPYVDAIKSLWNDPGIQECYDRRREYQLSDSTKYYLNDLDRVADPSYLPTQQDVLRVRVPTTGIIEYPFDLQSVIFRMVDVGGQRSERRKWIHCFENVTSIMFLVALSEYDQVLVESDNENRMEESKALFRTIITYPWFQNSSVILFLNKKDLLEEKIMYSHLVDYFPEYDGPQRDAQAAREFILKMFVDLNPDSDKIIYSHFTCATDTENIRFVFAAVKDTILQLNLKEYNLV
Protocol: (§2) Quantification of intracellular cAMP and IP1 was performed using the HTRF-cAMP dynamic kit and the HTRF-IP1 kit, respectively, on a Mithras LB 940 reader (Berthold Technologies) according to the manufacturer's instructions. For cAMP assays with M2-CHO cells, the Gi-biased muscarinic agonist iper-6-phth (ref. [30]) was applied.
Supplementary Figure 12: Catalytic hydrogenation of FR to produce “FR-red” and determination of its Gq-inhibitory activity. (a) The exocyclic double bond (yellow box) of FR was hydrogenated by hydrogen gas in the presence of palladium/carbon as a catalyst in a pressure tube in analogy to a procedure published for the hydrogenation of YM2. The structure of the product FR-red was confirmed by high performance liquid chromatography coupled to electrospray ionization mass spectrometry (LCMS) and by 1H- and 13C-NMR spectra. (b) M1-CHO cells were pre-incubated with increasing concentrations of FR or (also on this page, place not known: “FR -red” hydrogen ation YM 2. -red FR a b -8 -7 -6 -5 0 25 50 75 100 FR compound (log M) IP1 (% of 30 µM carbachol) FR FR-red)
(1 picture or pasted object on this page, not shown here)
FR-red and IP1 accumulation was determined in response to carbachol (30 µM). Inhibition of Gq protein […]
± 0.05). Data are means ± SEM of at least three independent experiments each performed in triplicate.

[4] = system: HEK293 wild type and HEK293 Gαq/11 knockout cells; test: Cell viability (CellTiter-Blue, resazurin) in HEK293 wild type and Gαq/11 knockout cells; type: cell-based; conditions: supramaximal FR concentrations, 24 h
Protocol: as §1

ERK1/2 = test: HTRF-based ERK1/2 phosphorylation assay in melanoma cell lines; set-up: species or system human and mouse; conditions: 1 μM, 1 h
Protocol: Quantification of phosphorylated ERK1/2 levels was performed using the phospho-ERK (Thr202/Tyr204) cellular assay kit (Cisbio). Melanoma cells were seeded into 96-well plates at a density of 25,000 or 50,000 cells per well and cultured overnight. The next day, medium was aspirated and cells were treated with 1 μM FR, 1 μM Trametinib, 1 μM Vemurafenib, or medium for 1 h at 37 °C. Subsequently, medium and inhibitors were removed and 50 μl lysis buffer were added to each well. The plates were incubated for 30 min at room temperature with shaking to lyse the cells and then frozen overnight at −20 °C. Lysates (16 μl) were transferred to a white 384-well plate. Anti-phospho-ERK1/2-d2 (2 μl) and anti-phospho-ERK1/2-Eu3^+-cryptate (2 μl) were added to each well and plates were incubated in the dark for 2 h at room temperature. Time-resolved fluorescence resonance energy transfer (FRET) signals were measured using the Mithras LB 940 multimode reader (Berthold Technologies).

[5] = system: CRTH2 β-arrestin2 recruitment; test: BRET2 β-arrestin2 recruitment to CRTH2; type: cell-based; conditions: CRTH2-RLuc-GFP2-β-arrestin2-HEK293; PTX 16-20 h, FR 30 min
Protocol: For BRET^2 assays on HEK293 cells stably expressing CRTH2-Luc and GFP^2-β-arrestin2, cells were detached and resuspendend in HBSS with 20 mM HEPES at a density of 1.06 × 10^6 cells per ml. Cell suspension (170 μl) was distributed into white 96-well microplates and incubated in the presence of 10 μl buffer or agonist for 5 min before substrate addition. DeepBlueC coelenterazine (Gold Biotechnology, MO, USA; 20 μl per well) was injected by injector 3 to yield a final concentration of 5 μM. To detect BRET, light emissions at 400 and 515 nm were measured sequentially using a Mithras LB 940 instrument. The BRET signal (BRET ratio) was determined by calculating the ratio of the light emitted by the fluorescence acceptor (515 nm) and the light emitted by Rluc (400 nm). The cells were pretreated with PTX for 16–20 h and FR for 30 min.

[6] = system: Gi-sensitive prostaglandin D2 receptor DP2/CRTH2; test: cAMP lowering (HTRF), Gi-sensitive CRTH2 in CRTH2-HEK293; type: cell-based; conditions: CRTH2-RLuc-GFP2-β-arrestin2-HEK293, PTX pretreatment
Protocol: as §2

In the case of C=C1C(=O)N[C@@H](C)C(=O)N(C)[C@@H](C)C(=O)N[C@@H]([C@H](OC(=O)[C@@H](NC(=O)CC)[C@H](O)C(C)C)C(C)C)C(=O)N(C)[C@@H]([C@@H](C)OC)C(=O)O[C@H](C(C)C)[C@H](NC(C)=O)C(=O)O[C@H](Cc2ccccc2)C(=O)N1C [FR, FR900359] (Ac-[X1][dPhLac][NMeDha]A[NMeA][X1](Leu(3R-OH,Nα-propionyl))[NMeT](Me); ester 1-C), the “mitochondrial metabolism (XTT)” value (B16 cells) is reported as “did not compromise mitochondrial metabolism”, the EC50 ([1]; [3H]GDP binding to Gαq after 120 min dissociation, 20 °C, read-out: half effective concentration, prevention of [3H]GDP dissociation) is reported as 15 nM and the EC50 ([1]; time 30 min, read-out: logEC50, inhibition of [3H]GDP dissociation (converted)) is reported as 15.5 nM. It also gave an EC50 ([1]; time 60 min, read-out: logEC50, inhibition of [3H]GDP dissociation (converted)) of 12.3 nM, an EC50 ([1]; time 90 min, read-out: logEC50, inhibition of [3H]GDP dissociation (converted)) of 13.2 nM and an EC50 ([1]; time 120 min, read-out: logEC50, inhibition of [3H]GDP dissociation (converted)) of 15.5 nM. For the same compound, the “percentage of proliferating cells (Ki67)” value ([2]; 24 h) was “did not alter”, the cell growth ([2]; 72 h) was “did not alter” and the “Annexin V” value [3] was 2.06%. For the same compound, the IC50 (Gq) was 263 nM and the “cell viability / cellular metabolic homoeostasis” value [4] was “does not disturb cellular metabolic homoeostasis”.

Work on CCC(=O)N[C@H](C(=O)O[C@H](C(C)C)[C@@H]1NC(=O)[C@H](C)N(C)C(=O)[C@H](C)NC(=O)C(C)N(C)C(=O)[C@@H](Cc2ccccc2)OC(=O)[C@@H](NC(C)=O)[C@@H](C(C)C)OC(=O)[C@H]([C@@H](C)OC)N(C)C1=O)[C@H](O)C(C)C (stereo partly drawn) [FR-red] (Ac-[X1][dPhLac][ξNMeA]A[NMeA][X1](Leu(3R-OH,Nα-propionyl))[NMeT](Me); ester 1-C) yielded an IC50 (Gq) of 891 nM.

CC(=O)Nc1cccc(-n2c(=O)n(C3CC3)c(=O)c3c(Nc4ccc(I)cc4F)n(C)c(=O)c(C)c32)c1 [Trametinib] was tested, and the ERK phosphorylation (ERK1/2) was “blunted ERK phosphorylation in all cell lines”.

CCCS(=O)(=O)Nc1ccc(F)c(C(=O)c2c[nH]c3ncc(-c4ccc(Cl)cc4)cc23)c1F [Vemurafenib] was tested, and the ERK phosphorylation (ERK1/2) was “inhibited ERK activation only in cell lines harbouring the mutant B-RafV600E allele”.

In the case of pertussis toxin [PTX], the “PGD2-induced β-arrestin recruitment to CRTH2” value [5] is reported as “without effect” and the “CRTH2-dependent lowering of cAMP” value [6] is reported as “fully prevented”.
